Results as given in US20240058240A1, “COMPOUNDS AS SELF-TANNING SUBSTANCES AND TANNING COMPOSITIONS THEREOF” (CHEMCOM S.A., priority 2020, published 2024).

How the values were obtained:
Assay type in all cases: cell-based
[1] = system: Normal Human Epidermal Melanocytes moderately pigmented (NHEMs-MP); assay: MTS cytotoxicity test on NHEMs-MP; settings: 4 days of treatment, 5 concentrations, threshold 80% viability
Procedure: (§1) This primary culture was cultivated in medium M254 supplemented (LIFE TECHNOLOGIES; ref:M-254-500) with HMGS (human melanocyte growth supplement; LIFE TECHNOLOGIES; ref: S-002-5) and gentamycin (LIFE TECHNOLOGIES; ref:15710-049) and maintained in a humidified incubator at 37° C. with a 5% CO2 atmosphere. For experiments (see below), cells were seeded at a density of 9×10^4 cells/well (100 μL/well) and cultured at 37° C. under a 5% CO2.
NHEMs moderately pigmented (NHEMs-MP) were seeded in 24-wells plates at a density of 9×10^4 cells/well, 72 h before the treatment with the different concentrations of 2 different compounds according to embodiments of the invention. After 2 days of treatment with these compounds, compounds were re-applied for 2 additional days according to the experimental scheme as shown in FIG. 1. Sodium dodecyl sulfate (SDS) at 0.05% was used as cytotoxicity positive control in order to validate the experiment. […]
An MTS assay (3-(4,5-dimethythiazol-2-yl)-5-(3-carboxymethoxyphenyl)-2-(4-sulfophenyl)-2H-tetrazolium) was performed to measure the maximal concentrations the compounds which can be used in the culture medium of NHEMs-MP without affecting cell viability. […] Cell viability was analyzed, and toxicity/viability was expressed in percentage relative to the ethanol treated condition which was fixed at 100%. […]

OR7C1 = molecular target: T1, OR7C1 (Homo sapiens, UniProt O76099); assay: Luciferase-based CRE gene reporter assay, dose-response on OR7C1; settings: negative logarithm of the EC50 in Moles; semi-logarithmic dilutions from 1 mM to 316 nM on OR7C1; read-out: -LogEC50 (average n > 3) (converted)
T1 construct: transfected with a plasmid containing the CRE-luciferase and a plasmid containing the olfactory receptor; expressed in transfected cells; host or cells: HEK293T-RTP1A1/RTP2 (HEK293T stably expressing the chaperones RTP1A1 and RTP2)
T1 sequence (O76099 1-320): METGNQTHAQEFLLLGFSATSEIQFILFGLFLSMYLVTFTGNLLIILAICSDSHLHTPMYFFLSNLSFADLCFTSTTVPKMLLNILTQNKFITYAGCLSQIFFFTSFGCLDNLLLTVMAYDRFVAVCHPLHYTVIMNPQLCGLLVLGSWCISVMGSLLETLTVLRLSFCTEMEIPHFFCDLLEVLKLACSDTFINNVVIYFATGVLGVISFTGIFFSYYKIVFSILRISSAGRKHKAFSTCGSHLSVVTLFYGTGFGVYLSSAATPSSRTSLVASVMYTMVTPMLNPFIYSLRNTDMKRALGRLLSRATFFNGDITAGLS
Procedure: HEK293T-RTP1A1/RTP2 cells were maintained in minimal essential medium (EMEM, Lonza) containing 10% fetal bovine serum (M10). These cells were generated by transfecting HEK293T (Thermofisher Scientific, cat ref: R70007) with an expression vector containing the sequences of the chaperone proteins RTP1A1 and RTP2 and a resistance gene to puromycin, using Lipofectamine 2000. The recombinant cell population, used in these experiments, was selected by adding 10 μg/ml of puromycin into the culture medium and subsequently subcloned (WO 2014/191047 A1).
Potential OR7C1 agonists were diluted at a concentration of 1 mole/liter (M) into an organic solvent such as Dimethyl Sulfoxide (DMSO) or Ethanol to generate stock solutions. […]
For concentration-response analysis, serial dilutions of the tested molecules were prepared from stock solutions in EMEM plated into 96-well plates.
For the dose-response analysis, a Luciferase-based gene reporter assay (Promega, Leiden, the Netherlands) was used. Briefly, cells were platted on poly-D-lysine-coated 96-well plates and transfected with a plasmid containing the CRE-luciferase and a plasmid containing the olfactory receptor. Sixteen hours after transfection, the culture medium was replaced by serum-free EMEM containing the tested compounds at a determined concentration. After four hours of incubation at 37° C., cells were lysed and processed for luminescence measurement. Luminescence emission was recorded. Results were expressed as luciferase activity ([…] (RLU)) or as percentage of the response induced by 10 μM of the adenylate cyclase activator Forskolin. An empty plasmid is used as negative control.
Dose-response analyses using the luciferase-based reporter assay were performed using semi-logarithmic serial dilutions of the compounds, from 1 mM to 316 nM, on OR7C1. 46 compounds were tested in concentration-response analyses. In each experiment, an empty vector (pEFIBRHO) was used as negative control. Values are given as the negative logarithm of the EC50 in Moles.

[2] = system: Normal Human Epidermal Melanocytes moderately pigmented (NHEMs-MP); assay: Melanin content (pigmentation) of NHEMs-MP in culture
Procedure: as §1
The NHEMs-MP were treated for 4 days, with a medium refresh after 2 days of treatment—Amberketal, Ambermax and with the reference molecule (L-DOPA)—when the culture media are collected and stored at −80° C. as shown in FIG. 2. At the end of the treatments, the culture media were collected a second time, pooled with the media collected at day 2 and centrifuged for 30 minutes (14000 rpm). The pellet obtained after centrifugation and NHEMs-MP treated cells were lysed in 150 μl of a NaOH 1M solution. 5 μl of each cell lysate were used for protein quantification using BCA protein assay. The remaining 145 μl of the lysates were heated at 80° C. during 1 h. The optical density was measured at 490 nm and the melanin content was determined by comparison with a standard curve of synthetic melanin and reported to the quantity of protein present in each cell well tested.
The effects of these 2 compounds, namely Ambermax and Amberketal, on the melanin production were evaluated as described above. Based on MTS results, moderately pigmented (MP) NHEMs were treated with these 2 compounds at one concentration (100 μM for Amberketal and 3.16 μM for Ambermax) for 4 days. In parallel, cell cultures were also treated with Ethanol 0.1%, a concentration corresponding to the test compounds solvent, and with a known modulator of pigmentation (L-DOPA 50 μM). […] At the end of the treatments (D4), cells were lysed, the melanin content was quantified by spectrophotometry and normalized to the amount of proteins. Extracellular melanin was also evaluated by the same methodology after centrifugation of the culture media.

CC(=O)C1(C)CCC2=C(C1C)C(C)(C)CCC2 (stereo not drawn) [Compound 4, Georgywood]
cell toxicity (MTS, viability relative to ethanol treated condition) [1]: no significant cell toxicity
EC50 (OR7C1): 25.1 µM

CC12CCC3C(CCC4C(C)(C)CCCC43C)(CO1)O2 (stereo not drawn) [Compound 17, Amberketal]
increase of melanin present in the media (extracellular) ([2]; 100 μM, 4 days, NHEMs-MP, in comparison with DOPA (50 μM), p<0.01, n=10): +99%
increase of intracellular melanin content ([2]; 100 μM, 4 days, NHEMs-MP, in comparison with DOPA (50 μM), p<0.01, n=12): +40%
EC50 (OR7C1): 2.51 µM

N[C@@H](Cc1ccc(O)c(O)c1)C(=O)O [L-DOPA, 3,4-dihydroxyphenylalanine, reference compound]
melanin content in NHEMs ([2]; 50 μM, 4 days of treatment): enhanced slightly the melanin content
